The values that follow come from patent US20110269758A1, “NAPHTHYRIDINONES AS PROTEIN KINASE INHIBITORS” (MERCK PATENT GMBH, priority 2008, published 2011).

Each structure is given as a SMILES string.

The target in one assay is T1, Aurora Kinase A (Homo sapiens, UniProt O14965).
T1 construct: full length Aurora A (1-403 amino acids); purchased Carna Biosciences 05-101
T1 sequence (O14965 1-403): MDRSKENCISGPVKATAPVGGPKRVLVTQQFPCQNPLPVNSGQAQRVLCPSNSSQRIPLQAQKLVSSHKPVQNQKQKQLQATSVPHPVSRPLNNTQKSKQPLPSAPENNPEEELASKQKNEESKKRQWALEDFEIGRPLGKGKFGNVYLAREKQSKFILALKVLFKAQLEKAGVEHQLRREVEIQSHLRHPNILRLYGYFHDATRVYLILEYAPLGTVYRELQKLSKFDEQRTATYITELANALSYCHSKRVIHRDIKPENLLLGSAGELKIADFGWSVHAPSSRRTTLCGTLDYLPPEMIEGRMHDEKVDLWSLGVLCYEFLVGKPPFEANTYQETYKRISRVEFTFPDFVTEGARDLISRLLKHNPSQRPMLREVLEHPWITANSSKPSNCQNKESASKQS
Briefly: Biochemical enzyme assay for Aurora A activity (Caliper LC3000 / Desktop Profiler mobility shift). Particulars: GST-Aurora A, 15 μM ATP, 90 min at 25° C.; LC3000 or Desktop Profiler; read-out: Aurora Kinase A IC50. As to the method:
(§1) The Aurora assays described here were performed on two Caliper Life Sciences systems, the LC3000 and the Desktop Profiler. These provide data on enzyme activity via measurement of the relative amounts of phosphorylated or unphosphorylated fluorescently labelled substrate peptide at the end of an enzymatic reaction. These different states of peptide are resolved by applying a potential difference across the sample. The presence of a charged phosphate group on the product (as opposed to the substrate) causes a different peptide mobility between the two peptides. This is visualized by excitation of a fluorescent label on the substrate and product peptides and represented as peaks within the analysis software.
In order to measure inhibitor activity of Aurora A inhibitors in the Caliper Life Sciences LC3000, a TTP Mosquito liquid handling instrument was used to place 0.25 μl of an appropriate concentration of inhibitor in 100% DMSO (for a dose response curve calculation) into each well of a 384-well plate.
The reaction was incubated for 90 min at 25° C., and then stopped by the addition of 70 μl of Stop buffer (100 mM HEPES pH 7.5, 0.015% Brij-35, 10 mM EDTA (Sigma, E7889)).
The plate was read on a Caliper LC 3000 in an Off-Chip mobility shift assay format, using the following parameters for a 12-sipper chip: screening pressure −1.8 psi, upstream voltage −2700, downstream voltage −1000. These conditions cause unphosphorylated substrate and phosphorylated product peptide to resolve as separate peaks allowing direct measurement of percentage of conversion of substrate to product.
(§2) The Desktop Profiler utilizes the same prinicipal as the LC 3000 for calculating percentage conversion of a substrate to product. Caliper Life Sciences provided proprietary flash frozen pre-made 384 well plates containing selected kinases. Each column in the 384 well plate contained a particular selected kinase. A second plate, the ‘substrate plate’ contained a mix of fluorescently labeled peptide substrate and ATP. These were arranged in columns so that transfer for substrate plate to enzyme plate provided the correct enzyme with the correct substrate/ATP concentration.
(§3) Compounds were added to a thawed enzyme plate in the desired format, in single concentrations. Reactions were initiated by transfer of the substrate/ATP mix from the substrate plate. The enzyme plate was incubated for 90 mins at 25° C. The reaction was stopped by addition of 70 μl of Stop Buffer (100 mM HEPES pH 7.5, 0.015% Brij-35, 10 mM EDTA (Sigma, E7889)).
Plates were read in a manner identical to that of the LC3000, and the ratio between substrate and product peaks provided the activity of the enzyme in that well.

The target of a further assay is Aurora Kinase B (Homo sapiens, UniProt Q96GD4). The assay is described as follows: Biochemical enzyme assay for Aurora B activity (Caliper mobility shift). Particulars: LC3000 or Desktop Profiler. As for the experimental part: as §1, §2, §3
Sequence of Aurora Kinase B (Q96GD4 whole entry): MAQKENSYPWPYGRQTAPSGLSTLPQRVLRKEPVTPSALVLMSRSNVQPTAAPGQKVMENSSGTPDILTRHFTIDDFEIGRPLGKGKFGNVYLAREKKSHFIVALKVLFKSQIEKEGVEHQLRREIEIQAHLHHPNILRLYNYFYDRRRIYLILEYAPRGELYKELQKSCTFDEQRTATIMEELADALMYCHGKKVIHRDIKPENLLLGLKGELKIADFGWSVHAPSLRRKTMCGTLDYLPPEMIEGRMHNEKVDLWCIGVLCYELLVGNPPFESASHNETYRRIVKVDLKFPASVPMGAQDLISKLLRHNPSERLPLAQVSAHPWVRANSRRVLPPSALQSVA
Plates were read in a manner identical to that of the LC3000, and the ratio between substrate and product peaks provided the activity of the enzyme in that well. This was best represented by a plate heat map which colors each well by percent inhibition as compared to positive and negative controls (no inhibitors and no ATP respectively).

Assay [1] relates to cyclin-dependent kinases (CDKs) and Aurora kinases. As to conditions: cited from earlier work.
For assay [2], the system named is tumor cells of various origins. As to conditions: cited from earlier work.
In the next assay the test system is human tumor types. As to conditions: diverse range of human tumor types; cited from earlier work.
The subject of assay [3] is leukemia, colon and pancreatic tumors. Particulars: variety of in vivo xenograft models, well-tolerated doses; cited from earlier work.

By IC50 is commonly meant the concentration at which inhibition is half-maximal. For the molecule `Nc1cc2c(Nc3ccc(NC(=O)c4ccc(F)cc4C(F)(F)F)cc3)ccnc2[nH]c1=O` [Compound 90, 4-Fluoro-2-trifluoromethyl-N-(4-(6-amino-7-oxo-7,8-dihydro-1,8-naphthyridin-4-yl-amino)phenyl)benzamide], the half-maximal inhibitory concentration (IC50) at Aurora Kinase A and on Aurora Kinase B was 1 to 300 nM throughout.
`O=C(Nc1ccc(Nc2ccnc3[nH]c(=O)cc(O)c23)cc1)c1ccc(F)cc1C(F)(F)F` [Compound 91, 4-Fluoro-N-[4-(5-hydroxy-7-oxo-7,8-dihydro-[1,8]naphthyridin-4-ylamino)-phenyl]-2 trifluoromethyl-benzamide]: the half-inhibitory concentration (IC50) on Aurora Kinase A and at Aurora Kinase B was 1 to 300 nM each time.
Turning to `O=C(Nc1ccc(Nc2ccnc3[nH]c(=O)cc(O)c23)cc1)c1ccccc1` [Compound 92, N-[4-(5-Hydroxy-7-oxo-7,8-dihydro-[1,8]naphthyridin-4-ylamino)-phenyl]-benzamide], the IC50 at Aurora Kinase A and at Aurora Kinase B was 1 to 300 nM throughout.
Take `O=C(Nc1ccc(Nc2ccnc3[nH]c(=O)cc(OCC4CC4)c23)cc1)c1ccccc1` [Compound 93, N-[4-(5-Cyclopropylmethoxy-7-oxo-7,8-dihydro-[1,8]naphthyridin-4-ylamino)-phenyl]benzamide]: the half-inhibitory concentration (IC50) at Aurora Kinase A and at Aurora Kinase B was 1 to 300 nM each time.
For the molecule `Cc1cc(=O)[nH]c2nccc(Nc3ccc(NC(=O)c4ccccc4)cc3)c12` [Compound 94, N-[4-(5-Methyl-7-oxo-7,8-dihydro-[1,8]naphthyridin-4-ylamino)-phenyl]-benzamide], the IC50 at Aurora Kinase A and on Aurora Kinase B was 1 to 300 nM each time.
As to `Cc1cc(=O)[nH]c2nccc(Nc3ccc(NC(=O)c4ccc(F)cc4C(F)(F)F)cc3)c12` [Compound 95, 4-Fluoro-N-[4-(5-methyl-7-oxo-7,8-dihydro-[1,8]naphthyridin-4-ylamino)-phenyl]-2 trifluoromethyl-benzamide], the IC50 on Aurora Kinase A and on Aurora Kinase B was 1 to 300 nM throughout.
Turning to `O=C(Nc1ccc(Nc2ccnc3[nH]c(=O)c(F)cc23)cc1)c1ccc(F)cc1C(F)(F)F` [Compound 96, 4-Fluoro-N-[4-(6-fluoro-7-oxo-7,8-dihydro-[1,8]naphthyridin-4-ylamino)-phenyl]-2 trifluoromethyl-benzamide], the IC50 at Aurora Kinase A and at Aurora Kinase B was 1 to 300 nM each time.
`Nc1nc(Nc2ccc(S(N)(=O)=O)cc2)nn1C(=O)c1c(F)cccc1F` [JNJ-7706621]: the “inhibition of CDKs and Aurora kinases” value in assay [1] is on record as “potent inhibition”. Besides, the “proliferation of tumor cells” value in assay [2] is “selectively blocked proliferation”.
On to `Cc1cc(Nc2cc(N3CCN(C)CC3)nc(Sc3ccc(NC(=O)C4CC4)cc3)n2)n[nH]1` [VX-680], for which the “effect on cell-cycle progression and apoptosis” value with human tumor types was “blocks cell-cycle progression and induces apoptosis”. Moreover, the “inhibition of tumor growth” value in assay [3] is “profound inhibition of tumor growth”.
